In patent US20250011311A1, “AMIDO HETEROAROMATIC COMPOUNDS” (AstraZeneca AB, priority 2022, published 2025):

What was measured:
[1] = target: recombinant 17bHSD4 (M1-N311) (Homo sapiens (Human), UniProt P51659); test: In Vitro 17bHSD4 Enzyme Assay; assay type: biochemical; conditions: 40 nM 17bHSD4, 0.125 mM NAD, 15 μM Estradiol, 1.5 h; NADH fluorescence; read-out: 17HSD17b4 Enzyme assay IC50
CYP2C9 = CYP2C9 (Homo sapiens (Human), UniProt P11712); test: Assay B: Cytochrome P450 Inhibition 2C9
human hepatocytes = test: Assay A: Metabolic Stability in Human Hepatocytes; assay type: in vitro ADME; conditions: cryopreserved human hepatocytes, 10^6 viable cells/mL, 1 μM compound, 37° C.
Procedure, shortened: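 Cryopreserved hepatocytes (10^6 viable cells/mL) at 37° C with 1 μM test compound, sampled 0.5–120 min and quenched in MeCN. Parent measured by LC-MS/MS; CLint (μL/min/10^6 cells) from the slope of ln(parent concentration) vs time.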

[2] = target: over expressed HSD17β9 in HEK293S cells (Homo sapiens (Human), UniProt Q92781); test: In Vitro 17bHSD9 Cell Assay; assay type: cell-based; conditions: HEK293S cells over expressing HSD17β9; retinol to retinal conversion, 18 h, LC-MS/MS; read-out: 17bHSD9 Cell assay IC50
over expressed HSD17β9 in HEK293S cells, sequence (Q92781 whole entry): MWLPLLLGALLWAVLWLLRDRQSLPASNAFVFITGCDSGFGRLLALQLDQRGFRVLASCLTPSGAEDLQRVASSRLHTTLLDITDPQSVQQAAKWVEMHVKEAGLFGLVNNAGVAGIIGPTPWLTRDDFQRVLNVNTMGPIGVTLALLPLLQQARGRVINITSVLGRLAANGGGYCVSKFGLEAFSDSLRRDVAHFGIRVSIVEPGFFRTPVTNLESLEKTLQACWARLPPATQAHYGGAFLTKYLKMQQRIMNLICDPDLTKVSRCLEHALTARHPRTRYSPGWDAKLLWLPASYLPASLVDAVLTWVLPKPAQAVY
Procedure, shortened: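 HEK293S cells overexpressing HSD17β9 were plated at 10K cells/well in DMEM + 10% FBS and cultured 18 h. Retinol-to-retinal conversion in media was quantified by LC-MS/MS (MRM) as retinal/(retinal + retinol). IC50 was fitted after normalisation to DMSO and full inhibition by a reference inhibitor.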

recombinant 17bHSD4 (M1-N311), sequence (P51659 1-311): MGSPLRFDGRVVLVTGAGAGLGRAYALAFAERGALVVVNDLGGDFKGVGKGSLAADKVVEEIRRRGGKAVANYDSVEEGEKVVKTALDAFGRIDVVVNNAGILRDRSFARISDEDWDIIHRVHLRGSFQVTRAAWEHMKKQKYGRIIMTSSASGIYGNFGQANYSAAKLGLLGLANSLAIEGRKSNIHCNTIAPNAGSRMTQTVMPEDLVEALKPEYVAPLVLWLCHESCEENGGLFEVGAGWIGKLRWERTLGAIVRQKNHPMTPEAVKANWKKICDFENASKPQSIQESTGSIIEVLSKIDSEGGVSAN
CYP2C9, sequence (P11712 whole entry): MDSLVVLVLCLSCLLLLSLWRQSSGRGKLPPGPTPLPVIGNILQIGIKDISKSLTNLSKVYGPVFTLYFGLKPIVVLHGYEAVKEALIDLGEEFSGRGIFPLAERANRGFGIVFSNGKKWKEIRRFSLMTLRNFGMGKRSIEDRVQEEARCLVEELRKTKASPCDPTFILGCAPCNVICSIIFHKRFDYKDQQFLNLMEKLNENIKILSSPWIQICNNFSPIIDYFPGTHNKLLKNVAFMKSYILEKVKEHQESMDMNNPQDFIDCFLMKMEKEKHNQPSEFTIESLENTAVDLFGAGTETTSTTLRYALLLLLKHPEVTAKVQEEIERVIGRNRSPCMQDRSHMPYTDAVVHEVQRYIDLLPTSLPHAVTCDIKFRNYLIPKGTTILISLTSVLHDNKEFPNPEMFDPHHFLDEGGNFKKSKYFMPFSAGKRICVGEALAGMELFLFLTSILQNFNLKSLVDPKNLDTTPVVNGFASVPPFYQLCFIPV

SMILES	IC50 [1] [µM]	IC50 (CYP2C9) [µM]	Assay A: Human Heps Met Clint GMean CLint (μl/min/1E6) (human hepatocytes)	IC50 [2] [µM]
N#Cc1ccc2c(c1)CN(C(=O)c1noc(-c3cc(F)c(F)c(O)c3F)c1C#N)CC2 [Example 29, 3-(7-Cyano-1,2,3,4-tetrahydroisoquinoline-2-carbonyl)-5-(2,4,5-trifluoro-3-hydroxyphenyl)isoxazole-4-carbonitrile]	17.6	0.2	16.9	16.3
O=C(Nc1ccnn1C1CCCCC1)c1cc(-c2ccc(F)c(O)c2)on1 [Example 99, N-(1-Cyclohexyl-1H-pyrazol-5-yl)-5-(4-fluoro-3-hydroxyphenyl)isoxazole-3-carboxamide]	41.8	> 30	>300	38.9
CC1(C)CN(C(=O)c2noc(-c3cc(F)c(F)c(O)c3F)n2)CC(C)(C)O1 [Example 32, (2,2,6,6-Tetramethylmorpholino)(5-(2,4,5-trifluoro-3-hydroxyphenyl)-1,2,4-oxadiazol-3-yl)methanone]	> 50	8.3	4.1	15.8
N#Cc1cccc2c1CCN(C(=O)c1noc(-c3c(F)c(O)c(F)c(F)c3Br)n1)C2 [Example 30, 2-(5-(2-Bromo-3,4,6-trifluoro-5-hydroxyphenyl)-1,2,4-oxadiazole-3-carbonyl)-1,2,3,4-tetrahydroisoquinoline-5-carbonitrile]	17.2	3.9	15.6	15.8
N#Cc1ccc2c(c1)CCN(C(=O)c1noc(-c3cc(F)c(F)c(O)c3F)n1)C2 [Example 31, 2-(5-(2,4,5-Trifluoro-3-hydroxyphenyl)-1,2,4-oxadiazole-3-carbonyl)-1,2,3,4-tetrahydroisoquinoline-6-carbonitrile]	11.5	5	12.6	30
CC[C@H]1CN(C(=O)c2noc(-c3cc(F)c(F)c(O)c3F)n2)C[C@@H](C)O1 (racemic) [Example 121, rac-((2R,6S)-2-Ethyl-6-methylmorpholino)(5-(2,4,5-trifluoro-3-hydroxyphenyl)-1,2,4-oxadiazol-3-yl)methanone]	> 50	7.7	6.8	16.4
O=C(c1noc(-c2cc(F)c(F)c(O)c2F)n1)N1CC[C@@H](Oc2ccccc2)C1 [Example 98, (R)-(3-Phenoxypyrrolidin-1-yl)(5-(2,4,5-trifluoro-3-hydroxyphenyl)-1,2,4-oxadiazol-3-yl)methanone]	9.5	0.8	26.7	40.2
COc1ccccc1C1CCN(C(=O)c2noc(-c3cc(F)c(F)c(O)c3F)n2)C1 (stereo not drawn) [Example 4, (3-(2-Methoxyphenyl)pyrrolidin-1-yl)(5-(2,4,5-trifluoro-3-hydroxyphenyl)-1,2,4-oxadiazol-3-yl)methanone]	6.1	0.6	47.4	13
C[C@@H]1CN(C(=O)c2noc(-c3c(F)c(O)c(F)c(F)c3I)n2)C[C@H](C)O1 [Example 108, ((2S,6R)-2,6-Dimethylmorpholino)(5-(2,4,5-trifluoro-3-hydroxy-6-iodophenyl)-1,2,4-oxadiazol-3-yl)methanone]	> 50	7	8.8	> 50
O=C(c1noc(-c2cc(F)c(F)c(O)c2F)n1)N1CCN(CCCOc2ccc(F)cc2)CC1 [Example 57, (4-(3-(4-Fluorophenoxy)propyl)piperazin-1-yl)(5-(2,4,5-trifluoro-3-hydroxyphenyl)-1,2,4-oxadiazol-3-yl)methanone]	32.3	3.7	9.5	> 50
N#Cc1cccc2c1CCN(C(=O)c1noc(-c3c(F)c(O)c(F)c(F)c3I)n1)C2 [Example 109, 2-(5-(2,4,5-Trifluoro-3-hydroxy-6-iodophenyl)-1,2,4-oxadiazole-3-carbonyl)-1,2,3,4-tetrahydroisoquinoline-5-carbonitrile]	11.7	14.8	13.0	> 50
O=C(c1noc(-c2cc(F)c(F)c(O)c2F)n1)N1CC(Oc2ccccc2)C1 [Example 2, (3-Phenoxyazetidin-1-yl)(5-(2,4,5-trifluoro-3-hydroxyphenyl)-1,2,4-oxadiazol-3-yl)methanone]	6.7	1.8	14.7	> 50
C[C@@H]1CN(C(=O)c2noc(-c3cc(F)c(F)c(O)c3F)c2C#N)C[C@H](C)O1 [Example 22, 3-((2R,6S)-2,6-Dimethylmorpholine-4-carbonyl)-5-(2,4,5-trifluoro-3-hydroxyphenyl)isoxazole-4-carbonitrile]	> 50	1.2	6.3	> 50
C[C@@H]1CN(C(=O)c2noc(-c3cc(F)c(F)c(O)c3F)n2)C[C@@H](C)O1 [Example 88, ((2R,6R)-2,6-Dimethylmorpholino)(5-(2,4,5-trifluoro-3-hydroxyphenyl)-1,2,4-oxadiazol-3-yl)methanone]	36.4	16.8	3.6	41.7
C[C@@H]1CC[C@H](C)N1C(=O)c1noc(-c2cc(F)c(F)c(O)c2F)n1 [Example 38, ((2R,5S)-2,5-Dimethylpyrrolidin-1-yl)(5-(2,4,5-trifluoro-3-hydroxyphenyl)-1,2,4-oxadiazol-3-yl)methanone]	24	14.8	2.1	8.7
